In ChEMBL document CHEMBL3301562, “MMV Box screening against Plasmodium falciparum protein kinases and aminoacyl tRNA synthetases” one finds IC50 data, which are given here for 14 compounds.

Common to all, as to assay type: functional
Assay [1] concerns the target T1, Cdk-related protein kinase 6 (Plasmodium falciparum, UniProt O77239).
T1 sequence (O77239 whole entry): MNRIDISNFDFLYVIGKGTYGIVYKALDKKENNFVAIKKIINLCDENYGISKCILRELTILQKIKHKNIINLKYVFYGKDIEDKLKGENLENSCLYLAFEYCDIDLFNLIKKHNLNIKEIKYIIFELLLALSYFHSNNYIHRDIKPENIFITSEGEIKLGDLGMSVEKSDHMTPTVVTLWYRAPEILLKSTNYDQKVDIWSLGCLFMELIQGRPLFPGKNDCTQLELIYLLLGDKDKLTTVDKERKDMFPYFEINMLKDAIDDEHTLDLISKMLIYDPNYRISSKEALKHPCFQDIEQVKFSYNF
The assay can be described thus: Final concentrations were 1.5 uM ATP, 5 mM MnCl2, and 15 ug/ml PK6 in a buffer of 100 mM Tris-HCl (pH 7.5). 50 ug/mL MBP was provided as the substrate; 10 uM staurosporine was used as a control inhibitor. Incubation time was 3 hours and 40 minutes.The catalytic activity of each kinase was considered proportional to ATP consumed, as determined from measurements of residual [ATP] with the luciferase-based reagent Kinase-Glo (Promega) following incubation. Luminescence (proportional to residual [ATP]) was measured on the plate readers FLx800 (BioTek Instruments, Winooski, VT, USA) and MicroBeta2. (In general: Kinase-Glo reads ATP consumption through a luciferase reaction.)

Assay [2] concerns the target T2, Mitogen-activated protein kinase (Plasmodium falciparum, UniProt Q25917).
T2 sequence (Q25917 whole entry): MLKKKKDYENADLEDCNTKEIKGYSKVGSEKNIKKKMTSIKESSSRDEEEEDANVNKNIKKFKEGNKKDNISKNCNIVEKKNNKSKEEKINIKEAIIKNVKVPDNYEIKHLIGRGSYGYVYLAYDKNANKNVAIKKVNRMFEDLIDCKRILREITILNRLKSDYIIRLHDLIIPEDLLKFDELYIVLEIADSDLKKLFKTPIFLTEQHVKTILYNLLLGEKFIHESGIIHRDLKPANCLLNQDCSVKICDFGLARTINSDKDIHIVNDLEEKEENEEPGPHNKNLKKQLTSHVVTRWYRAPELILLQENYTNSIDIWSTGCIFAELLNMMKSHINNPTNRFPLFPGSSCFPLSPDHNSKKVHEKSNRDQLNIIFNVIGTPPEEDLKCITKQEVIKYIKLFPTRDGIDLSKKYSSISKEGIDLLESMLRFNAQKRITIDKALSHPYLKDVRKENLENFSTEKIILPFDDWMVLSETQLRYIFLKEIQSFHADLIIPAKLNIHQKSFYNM
The assay can be described thus: Final concentrations were 1 uM ATP, 0.5 mM DTT, 1 mM MgCl2, 0.5 mg/mL BSA, and 10 ug/ml MAP2 in a buffer of 50 mM HEPES (pH 7.0). 0.5 mg/mL histone III-S served as the substrate (13); 100 uM AMP-PNP, an ATP analog, was used as a control inhibitor. Incubation time was 4 hours.

The target in the next assay is T3, Proline--tRNA ligase (Plasmodium falciparum (isolate 3D7), UniProt Q8I5R7).
T3 sequence (Q8I5R7 whole entry): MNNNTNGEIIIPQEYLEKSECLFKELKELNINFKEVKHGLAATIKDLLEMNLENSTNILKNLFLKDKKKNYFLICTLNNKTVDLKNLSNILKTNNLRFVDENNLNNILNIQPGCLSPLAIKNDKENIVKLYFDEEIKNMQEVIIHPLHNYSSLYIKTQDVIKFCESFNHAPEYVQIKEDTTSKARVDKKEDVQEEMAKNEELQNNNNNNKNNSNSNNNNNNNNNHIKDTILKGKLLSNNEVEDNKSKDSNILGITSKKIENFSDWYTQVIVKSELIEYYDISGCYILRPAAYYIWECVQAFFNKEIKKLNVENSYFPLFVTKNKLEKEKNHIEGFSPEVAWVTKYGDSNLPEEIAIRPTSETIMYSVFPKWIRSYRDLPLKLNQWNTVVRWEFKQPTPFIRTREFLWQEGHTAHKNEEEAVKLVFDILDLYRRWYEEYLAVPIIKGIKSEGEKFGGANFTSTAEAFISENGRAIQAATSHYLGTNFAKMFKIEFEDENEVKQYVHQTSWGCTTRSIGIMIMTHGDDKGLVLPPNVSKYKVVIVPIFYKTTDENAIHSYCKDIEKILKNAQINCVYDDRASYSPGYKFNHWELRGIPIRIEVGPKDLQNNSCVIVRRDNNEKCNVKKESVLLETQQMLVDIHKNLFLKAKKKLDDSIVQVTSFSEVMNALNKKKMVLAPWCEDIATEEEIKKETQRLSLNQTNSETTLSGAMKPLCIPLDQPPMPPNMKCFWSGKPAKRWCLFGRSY
Briefly: MMV: ProRS recombinant Plasmodium falciparum Prolyl-tRNA-synthetase, assay with yeast tRNA, ATP, and proline and 3 uM MMV malaria box compound, assay read out with kinase glo as % inhibition.

In assay [3] the target is Calcium-dependent protein kinase 1 (Plasmodium falciparum, UniProt P62344). Briefly: MMV: CDPK1 Protein kinase inhibition assay using recombinant PfCDPK1, syntide 2 peptide substrate, ATP and KinaseGlo to measure % inhibition at 1 uM MMV box compound.
Another assay deals with Lysine--tRNA ligase (Plasmodium falciparum (isolate 3D7), UniProt Q8IDJ8). The assay can be described thus: MMV: KRS recombinant Plasmodium falciparum Lysyl-tRNA-synthetase, assay with yeast tRNA, ATP, and lysine and 3 uM MMV malaria box compound, assay read out with kinase glo as % inhibition.
In assay [4] the target is T4, Putative uncharacterized protein pk7 (Plasmodium falciparum, UniProt O96214).
T4 sequence (O96214 whole entry): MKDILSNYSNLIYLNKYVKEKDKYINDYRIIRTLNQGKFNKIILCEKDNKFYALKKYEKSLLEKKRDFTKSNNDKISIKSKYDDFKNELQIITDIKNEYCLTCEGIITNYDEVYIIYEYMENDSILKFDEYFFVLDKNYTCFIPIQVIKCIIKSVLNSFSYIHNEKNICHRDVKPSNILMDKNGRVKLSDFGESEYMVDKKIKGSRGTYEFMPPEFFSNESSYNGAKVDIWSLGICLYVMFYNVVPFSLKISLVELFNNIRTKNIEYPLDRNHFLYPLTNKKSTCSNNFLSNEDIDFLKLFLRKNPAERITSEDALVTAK
The assay can be described thus: Final concentrations were 1 uM ATP, 2 mM DTT, 20 mM MgCl2, 2 mM MnCl2, 0.01% BSA, and 6 ug/ml PK7, in a buffer of 20 mM Tris-HCl (pH 7.5). The enzyme itself was the only substrate present (since autophosphorylation occurs); 100 uM 1NA-PP1 was used as a control inhibitor. Incubation time was 3 hours.

The target of assay [5] is T5, Calcium-dependent protein kinase 4 (Plasmodium falciparum (isolate 3D7), UniProt Q8IBS5).
T5 sequence (Q8IBS5 whole entry): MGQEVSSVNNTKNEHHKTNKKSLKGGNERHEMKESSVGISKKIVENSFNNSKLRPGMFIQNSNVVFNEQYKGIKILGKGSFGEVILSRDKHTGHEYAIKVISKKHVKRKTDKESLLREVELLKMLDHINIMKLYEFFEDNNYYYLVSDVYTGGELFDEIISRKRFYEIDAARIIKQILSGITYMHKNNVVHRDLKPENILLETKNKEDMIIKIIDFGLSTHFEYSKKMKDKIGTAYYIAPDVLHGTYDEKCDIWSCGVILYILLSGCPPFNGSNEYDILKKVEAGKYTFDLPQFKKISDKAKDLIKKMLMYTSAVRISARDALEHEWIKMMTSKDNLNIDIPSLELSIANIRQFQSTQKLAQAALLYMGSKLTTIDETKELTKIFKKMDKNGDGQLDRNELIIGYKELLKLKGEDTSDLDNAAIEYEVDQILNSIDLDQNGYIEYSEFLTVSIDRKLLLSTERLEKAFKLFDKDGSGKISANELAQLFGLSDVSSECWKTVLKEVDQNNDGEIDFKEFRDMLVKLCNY
Briefly: MMV: CDPK4 Protein kinase inhibition assay using recombinant PfCDPK4, syntide2 peptide substrate, ATP and KinaseGlo to measure % inhibition at 1 uM MMV box compound.

Sequence of Lysine--tRNA ligase (Q8IDJ8 whole entry): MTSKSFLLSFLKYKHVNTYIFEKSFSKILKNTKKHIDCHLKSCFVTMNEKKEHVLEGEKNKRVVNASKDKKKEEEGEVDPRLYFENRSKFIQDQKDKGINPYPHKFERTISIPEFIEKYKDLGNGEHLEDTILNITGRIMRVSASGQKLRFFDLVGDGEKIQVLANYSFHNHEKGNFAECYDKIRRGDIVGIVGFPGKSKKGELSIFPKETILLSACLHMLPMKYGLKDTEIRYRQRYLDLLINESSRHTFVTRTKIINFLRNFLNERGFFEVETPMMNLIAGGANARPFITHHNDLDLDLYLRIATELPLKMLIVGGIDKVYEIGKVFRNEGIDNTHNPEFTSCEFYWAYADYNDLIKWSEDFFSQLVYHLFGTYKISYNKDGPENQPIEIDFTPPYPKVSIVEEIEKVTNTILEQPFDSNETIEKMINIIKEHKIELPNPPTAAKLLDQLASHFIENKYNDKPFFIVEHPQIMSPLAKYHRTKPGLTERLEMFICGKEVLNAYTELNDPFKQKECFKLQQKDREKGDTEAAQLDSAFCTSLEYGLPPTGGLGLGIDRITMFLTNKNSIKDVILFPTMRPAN
Sequence of Calcium-dependent protein kinase 1 (P62344 whole entry): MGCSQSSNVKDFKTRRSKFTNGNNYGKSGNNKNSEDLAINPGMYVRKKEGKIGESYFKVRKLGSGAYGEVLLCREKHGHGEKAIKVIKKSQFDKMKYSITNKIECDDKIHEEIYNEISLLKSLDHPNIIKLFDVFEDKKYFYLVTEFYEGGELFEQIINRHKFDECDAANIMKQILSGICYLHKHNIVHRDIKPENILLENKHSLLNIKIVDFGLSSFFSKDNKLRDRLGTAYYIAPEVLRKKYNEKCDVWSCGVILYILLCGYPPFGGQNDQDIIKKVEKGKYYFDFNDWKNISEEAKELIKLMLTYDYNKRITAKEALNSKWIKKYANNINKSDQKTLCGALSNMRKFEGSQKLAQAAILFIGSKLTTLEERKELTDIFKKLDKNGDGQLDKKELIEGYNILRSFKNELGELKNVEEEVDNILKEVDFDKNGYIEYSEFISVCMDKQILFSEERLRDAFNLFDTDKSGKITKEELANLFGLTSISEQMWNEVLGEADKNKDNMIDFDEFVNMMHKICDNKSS

For the compound `O=C(Nc1ccc(Cl)c(Cl)c1)Nc1ccc(Cl)c(Cl)c1`, the IC50 in assay [1] was > 1000 nM; in assay [2] it was > 1000 nM; on Proline--tRNA ligase, > 2500 nM; in assay [3], > 1000 nM; at Lysine--tRNA ligase it was > 2500 nM; in assay [4], > 1000 nM. Also, the concentration for half-maximal inhibition (IC50) in assay [5] is > 1000 nM.

Turning to `N=c1n(CCN2CCCCC2)c2ccccc2n1CC(=O)c1ccc(Cl)c(Cl)c1`, the 50% inhibitory concentration (IC50) was > 1000 nM in assay [1]; > 1000 nM in assay [2]; > 2500 nM on Proline--tRNA ligase; > 1000 nM in assay [3]; > 2500 nM on Lysine--tRNA ligase; > 1000 nM in assay [4]. Also, the IC50 in assay [5] was > 1000 nM.

For the compound `COc1ccc(-c2nc(N3CCN(C(=O)C4CCCCC4)CC3)c3c4c(sc3n2)CCCC4)cc1`, the IC50 in assay [1] is > 1000 nM; in assay [2] it was > 1000 nM; at Proline--tRNA ligase, > 2500 nM; in assay [3], > 1000 nM; on Lysine--tRNA ligase, > 2500 nM; in assay [4], > 1000 nM. Besides, the 50% inhibitory concentration (IC50) in assay [5] was > 1000 nM.

As for `COc1cc(C(=O)Nc2nc3c(cc4c5c(cccc53)CC4)s2)cc(OC)c1OC`, the IC50 in assay [1] is > 1000 nM; in assay [2], > 1000 nM; at Proline--tRNA ligase, > 2500 nM; in assay [3], > 1000 nM; on Lysine--tRNA ligase, > 2500 nM; in assay [4] it was > 1000 nM. Besides, the half-inhibitory concentration (IC50) in assay [5] was > 1000 nM.

As for `COc1ccc(CCN2C(=O)c3[nH]nc(-c4cc(Cl)c(C)cc4O)c3C2c2ccccc2F)cc1` (stereo not drawn), the IC50 in assay [1] is > 1000 nM; in assay [2], > 1000 nM; at Proline--tRNA ligase, > 2500 nM; in assay [3], > 1000 nM; on Lysine--tRNA ligase it was > 2500 nM; in assay [4] it was > 1000 nM. For the same compound, in assay [5], the IC50 was > 1000 nM.

As for `CCOc1ccc(N2C(N)=NC(N)=NC2(C)C)cc1`, the concentration for half-maximal inhibition (IC50) in assay [1] is > 1000 nM; in assay [2] it was > 1000 nM; on Proline--tRNA ligase, > 2500 nM; in assay [3], > 1000 nM; at Lysine--tRNA ligase, > 2500 nM; in assay [4] it was > 1000 nM. Further, the IC50 in assay [5] was > 1000 nM.

On to `O=C(CCl)NCCOc1ccc(Cl)cc1Cl`, for which the IC50 in assay [1] was > 1000 nM; in assay [2], > 1000 nM; on Proline--tRNA ligase, > 2500 nM; in assay [3], > 1000 nM; at Lysine--tRNA ligase, > 2500 nM; in assay [4], > 1000 nM. In assay [5], the 50% inhibitory concentration (IC50) is > 1000 nM.

Consider `COc1ccc(CCn2c(=N)c(C(=O)NCc3cccnc3)cc3c(=O)n4cccc(C)c4nc32)cc1`, for which the IC50 in assay [1] is > 1000 nM; in assay [2], > 1000 nM; at Proline--tRNA ligase, > 2500 nM; in assay [3], > 1000 nM; at Lysine--tRNA ligase it was > 2500 nM; in assay [4] it was > 1000 nM. The IC50 in assay [5] was > 1000 nM.

For the compound `COc1ccc(Nc2cc(C)nc(NCc3ccccc3)n2)cc1`, the IC50 is > 1000 nM in assay [1]; > 1000 nM in assay [2]; > 2500 nM on Proline--tRNA ligase; > 1000 nM in assay [3]; > 2500 nM on Lysine--tRNA ligase; > 1000 nM in assay [4]. The IC50 in assay [5] is > 1000 nM.

On to `Oc1ccc2ccccc2c1CNc1nc2ccccc2[nH]1`, for which the IC50 in assay [1] was > 1000 nM; in assay [2] it was > 1000 nM; on Proline--tRNA ligase, > 2500 nM; in assay [3] it was > 1000 nM; on Lysine--tRNA ligase it was > 2500 nM; in assay [4], > 1000 nM. For the same compound, the IC50 in assay [5] was > 1000 nM.

Turning to `O=C1c2ccc3c4c(ccc(c24)C(=O)N1CCCCO)C(=O)N(CCCCO)C3=O`, the IC50 in assay [1] is > 1000 nM; in assay [2], > 1000 nM; at Proline--tRNA ligase, > 2500 nM; in assay [3], > 1000 nM; at Lysine--tRNA ligase, > 2500 nM; in assay [4], > 1000 nM. In assay [5], the 50% inhibitory concentration (IC50) is > 1000 nM.

As for `COc1ccc(C(=O)C(CCC(CNC(C)(C)C)C(=O)c2ccc(OC)cc2)CNC(C)(C)C)cc1` (stereo not drawn), the IC50 was > 1000 nM in assay [1]; > 1000 nM in assay [2]; > 2500 nM on Proline--tRNA ligase; > 1000 nM in assay [3]; > 2500 nM on Lysine--tRNA ligase; > 1000 nM in assay [4]. In addition, the IC50 in assay [5] was > 1000 nM.

`COc1cc(CNCCc2ccc(Cl)cc2)cc(OC)c1O`: the IC50 was > 1000 nM in assay [1]; > 1000 nM in assay [2]; > 2500 nM at Proline--tRNA ligase; > 1000 nM in assay [3]; > 2500 nM at Lysine--tRNA ligase; > 1000 nM in assay [4]. The IC50 in assay [5] was > 1000 nM.

Turning to `Cc1ccc(C)c(-c2csc(Nc3ccc(C)c(C)c3)n2)c1`, the IC50 was > 1000 nM in assay [1]; > 1000 nM in assay [2]; > 2500 nM on Proline--tRNA ligase; > 1000 nM in assay [3]; > 2500 nM at Lysine--tRNA ligase; > 1000 nM in assay [4]. Also, the half-maximal inhibitory concentration (IC50) in assay [5] was > 1000 nM.

By IC50 is commonly meant the midpoint of a concentration-inhibition curve.
